Measured values reported in US11649255B2, “Indazoles as hematopoietic progenitor kinase 1 (HPK1) inhibitors and methods using same” (1st Biotherapeutics, Inc., priority 2020, dated 2023).

What follows are compounds tested against recombinant human HPK1 (Homo sapiens (Human), UniProt Q92918) (assay: HPK1 kinase assay (ADP-Glo)). Settings: 25 μM ATP, MBP substrate.
Assay type: biochemical
Description: HPK1 kinase activity was measured by Promega's ADP-Glo™ kinase assay. In this assay, 5 ng of recombinant human HPK1 (signalchem) is incubated with 5 μL of compounds (0.5% DMSO), 5 μL of MBP (0.5 μg/μl) and 5 μL of ATP (25 μM) in buffer (40 mM Tris, 7.5; 20 mM MgCl2; 0.1 mg/ml BSA; 5 μM DTT). The assay was started by incubating the reaction mixture in a 96-well plate at 30′ C for 40 minutes. After the incubation, 25 uL ADP-Glo reagent was added and the reaction was incubated at room temperature for 40-min to stop the reaction and degrade residual ATP. The ADP product was then converted to ATP by adding 50 uL per well of detection reagent. Luminescence was detected after 30-min room temperature incubation with the Molecular device I3X plate reader. The IC50 values were calculated from a series of percent inhibition values determined at a range of inhibitor concentration using software routines as implemented in the GraphPad Prism 7 software and SigmaPlot13.0.

recombinant human HPK1, sequence (Q92918 whole entry): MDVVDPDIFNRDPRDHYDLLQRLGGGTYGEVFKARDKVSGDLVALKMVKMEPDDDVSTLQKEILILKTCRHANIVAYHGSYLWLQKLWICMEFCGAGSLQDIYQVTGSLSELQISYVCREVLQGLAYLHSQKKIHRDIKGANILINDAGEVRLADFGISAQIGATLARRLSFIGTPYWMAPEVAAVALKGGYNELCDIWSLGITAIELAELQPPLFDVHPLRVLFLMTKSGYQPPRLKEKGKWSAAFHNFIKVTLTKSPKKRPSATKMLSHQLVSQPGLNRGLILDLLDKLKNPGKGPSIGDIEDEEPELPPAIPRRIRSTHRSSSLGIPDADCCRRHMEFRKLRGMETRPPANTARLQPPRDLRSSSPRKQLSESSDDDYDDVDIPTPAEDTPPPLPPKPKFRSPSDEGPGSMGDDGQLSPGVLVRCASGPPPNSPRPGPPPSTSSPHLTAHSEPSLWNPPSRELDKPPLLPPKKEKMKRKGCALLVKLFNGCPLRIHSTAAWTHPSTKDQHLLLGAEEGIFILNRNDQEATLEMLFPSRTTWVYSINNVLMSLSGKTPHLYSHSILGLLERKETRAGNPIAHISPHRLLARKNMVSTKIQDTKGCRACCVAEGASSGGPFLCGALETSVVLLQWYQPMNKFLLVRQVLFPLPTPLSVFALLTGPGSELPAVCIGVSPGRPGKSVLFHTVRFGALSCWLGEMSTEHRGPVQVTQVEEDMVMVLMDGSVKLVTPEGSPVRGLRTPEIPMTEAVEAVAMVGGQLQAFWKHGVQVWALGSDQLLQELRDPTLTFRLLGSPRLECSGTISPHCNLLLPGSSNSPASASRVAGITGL

| Structure (SMILES) | IC50 [nM] |
| --- | --- |
| Cc1ccc2[nH]ncc2c1-c1ccc2nc(NC(=O)C3CC3)sc2c1 [Example 1, N-(6-(5-methyl-1H-indazol-4-yl)benzo[d]thiazol-2-yl)cyclopropanecarboxamide] | 101 to 500 |
| Cc1ccc2[nH]ncc2c1-c1ccc2nc(NC(=O)[C@@H]3C[C@@H]3F)sc2c1 [Example 2, (1S,2S)-2-fluoro-N-(6-(5-methyl-1H-indazol-4-yl)benzo[d]thiazol-2-yl)cyclopropane-1-carboxamide] | 101 to 500 |
| Cc1ccc2[nH]ncc2c1-c1ccc2nc(NC(=O)OC(C)(C)C)sc2c1 [Example 3, tert-butyl (6-(5-methyl-1H-indazol-4-yl)benzo[d]thiazol-2-yl)carbamate] | > 1000 |
| Cc1ccc2[nH]ncc2c1-c1ccc2nc(NC(=O)C3CCC3)sc2c1 [Example 4, N-(6-(5-methyl-1H-indazol-4-yl)benzo[d]thiazol-2-yl)cyclobutanecarboxamide] | 501 to 1000 |
| Cc1ccc2[nH]ncc2c1-c1ccc2nc(NC(=O)C3CC3(F)F)sc2c1 (stereo not drawn) [Example 5, 2,2-difluoro-N-(6-(5-methyl-1H-indazol-4-yl)benzo[d]thiazol-2-yl)cyclopropane-1-carboxamide] | 101 to 500 |
| Cc1ccc2[nH]ncc2c1-c1ccc2nc(NC(=O)C3CC(F)C3)sc2c1 [Example 6, (1S,3S)-3-fluoro-N-(6-(5-methyl-1H-indazol-4-yl)benzo[d]thiazol-2-yl)cyclobutane-1-carboxamide] | 101 to 500 |
| Cc1ccc2[nH]ncc2c1-c1ccc2nc(NC(=O)C3CC(F)C3)sc2c1 [Example 7, (1R,3R)-3-fluoro-N-(6-(5-methyl-1H-indazol-4-yl)benzo[d]thiazol-2-yl)cyclobutane-1-carboxamide] | 101 to 500 |
| Cc1ccc2[nH]ncc2c1-c1ccc2nc(NC(=O)c3ccccc3)sc2c1 [Example 8, N-(6-(5-methyl-1H-indazol-4-yl)benzo[d]thiazol-2-yl)benzamide] | > 1000 |
| CCCCC(=O)Nc1nc2ccc(-c3c(C)ccc4[nH]ncc34)cc2s1 [Example 9, N-(6-(5-methyl-1H-indazol-4-yl)benzo[d]thiazol-2-yl)pentanamide] | > 1000 |
| Cc1ccc2[nH]ncc2c1-c1ccc2nc(NC(=O)C3CCCC3)sc2c1 [Example 10, N-(6-(5-methyl-1H-indazol-4-yl)benzo[d]thiazol-2-yl)cyclopentanecarboxamide] | > 1000 |
| Cc1ccc2[nH]ncc2c1-c1ccc2nc(NC(=O)C3CC(F)(F)C3)sc2c1 [Example 11, 3,3-difluoro-N-(6-(5-methyl-1H-indazol-4-yl)benzo[d]thiazol-2-yl)cyclobutane-1-carboxamide] | 501 to 1000 |
| Cc1ccc2[nH]ncc2c1-c1ccc2nc(NC(=O)c3ccccn3)sc2c1 [Example 12, N-(6-(5-methyl-1H-indazol-4-yl)benzo[d]thiazol-2-yl)picolinamide] | > 1000 |
| O=C(Nc1nc2ccc(-c3c(-c4cccs4)ccc4[nH]ncc34)cc2s1)C1CC1 [Example 13, N-(6-(5-(thiophen-2-yl)-1H-indazol-4-yl)benzo[d]thiazol-2-yl)cyclopropanecarboxamide] | > 1000 |
| O=C(Nc1nc2ccc(-c3cccc4[nH]ncc34)cc2s1)C1CC1 [Example 14, N-(6-(1H-indazol-4-yl)benzo[d]thiazol-2-yl)cyclopropanecarboxamide] | > 1000 |
| O=C(Nc1nc2ccc(-c3c(F)ccc4[nH]ncc34)cc2s1)C1CC1 [Example 15, N-(6-(5-fluoro-1H-indazol-4-yl)benzo[d]thiazol-2-yl)cyclopropanecarboxamide] | 101 to 500 |
| O=C(Nc1nc2ccc(-c3c(Cl)ccc4[nH]ncc34)cc2s1)C1CC1 [Example 16, N-(6-(5-chloro-1H-indazol-4-yl)benzo[d]thiazol-2-yl)cyclopropanecarboxamide] | 101 to 500 |
| O=C(Nc1nc2ccc(-c3c(C(F)(F)F)ccc4[nH]ncc34)cc2s1)C1CC1 [Example 17, N-(6-(5-(trifluoromethyl)-1H-indazol-4-yl)benzo[d]thiazol-2-yl)cyclopropanecarboxamide] | 101 to 500 |
| O=C(Nc1nc2ccc(-c3c(-c4ccsc4)ccc4[nH]ncc34)cc2s1)C1CC1 [Example 18, N-(6-(5-(thiophen-3-yl)-1H-indazol-4-yl)benzo[d]thiazol-2-yl)cyclopropanecarboxamide] | > 1000 |
| O=C(Nc1nc2ccc(-c3ccc(Cl)c4[nH]ncc34)cc2s1)C1CC1 [Example 19, N-(6-(7-chloro-1H-indazol-4-yl)benzo[d]thiazol-2-yl)cyclopropanecarboxamide] | > 1000 |
| O=C(Nc1nc2ccc(-c3cc(Cl)cc4[nH]ncc34)cc2s1)C1CC1 [Example 20, N-(6-(6-chloro-1H-indazol-4-yl)benzo[d]thiazol-2-yl)cyclopropanecarboxamide] | > 1000 |
| CC(C)(C)OC(=O)c1ccc2[nH]ncc2c1-c1ccc2nc(NC(=O)C3CC3)sc2c1 [Example 21, tert-butyl 4-(2-(cyclopropanecarboxamido)benzo[d]thiazol-6-yl)-1H-indazole-5-carboxylate] | > 1000 |

Other lines, results leading:

| IC50 [nM] | Structure (SMILES) |
| --- | --- |
| > 1000 | O=C(Nc1nc2ccc(-c3cc(-c4cccs4)cc4[nH]ncc34)cc2s1)C1CC1 [Example 22, N-(6-(6-(thiophen-2-yl)-1H-indazol-4-yl)benzo[d]thiazol-2-yl)cyclopropanecarboxamide] |
| > 1000 | O=C(NCc1ccsc1)c1ccc2[nH]ncc2c1-c1ccc2nc(NC(=O)C3CC3)sc2c1 [Example 23, 4-(2-(cyclopropanecarboxamido)benzo[d]thiazol-6-yl)-N-(thiophen-3-ylmethyl)-1H-indazole-5-carboxamide] |
| 101 to 500 | COc1ccc2[nH]ncc2c1-c1ccc2nc(NC(=O)C3CC3)sc2c1 [Example 24, N-(6-(5-methoxy-1H-indazol-4-yl)benzo[d]thiazol-2-yl)cyclopropanecarboxamide] |
| 501 to 1000 | O=C(Nc1nc2ccc(-c3c(CO)ccc4[nH]ncc34)cc2s1)C1CC1 [Example 25, N-(6-(5-(hydroxymethyl)-1H-indazol-4-yl)benzo[d]thiazol-2-yl)cyclopropanecarboxamide] |
| > 1000 | Cc1ccc2[nH]nc(N)c2c1-c1ccc2nc(NC(=O)C3CC3)sc2c1 [Example 26, N-(6-(3-amino-5-methyl-1H-indazol-4-yl)benzo[d]thiazol-2-yl)cyclopropanecarboxamide] |
| > 1000 | O=C(Nc1nc2ccc(-c3c(O)ccc4[nH]ncc34)cc2s1)C1CC1 [Example 27, N-(6-(5-hydroxy-1H-indazol-4-yl)benzo[d]thiazol-2-yl)cyclopropanecarboxamide] |
| 101 to 500 | CCc1ccc2[nH]ncc2c1-c1ccc2nc(NC(=O)C3CC3)sc2c1 [Example 28, N-(6-(5-ethyl-1H-indazol-4-yl)benzo[d]thiazol-2-yl)cyclopropanecarboxamide] |
| 101 to 500 | N#Cc1ccc2[nH]ncc2c1-c1ccc2nc(NC(=O)C3CC3)sc2c1 [Example 29, N-(6-(5-cyano-1H-indazol-4-yl)benzo[d]thiazol-2-yl)cyclopropanecarboxamide] |
| 101 to 500 | O=C(Nc1nc2ccc(-c3c(Cl)ccc4[nH]ncc34)cc2s1)[C@@H]1C[C@@H]1F [Example 30, (1S,2S)-N-(6-(5-chloro-1H-indazol-4-yl)benzo[d]thiazol-2-yl)-2-fluorocyclopropane-1-carboxamide] |
